Values quoted from earlier work, collected in patent US20130030007A1, “Obesity Small Molecules” (AKRON MOLECULES GMBH, priority 2010, published 2013).
Read-outs that look alike come from different tables or passages of the source. Non-standard residues stand in square brackets, D forms with d. Residues, ends and D or L forms follow the SMILES beside them. pGlu = O=C1CC[C@@H](C(=O)O)N1; Thz = O=C(O)[C@@H]1CSCN1

Test system: human ortholog of Drosophila obesity gene
Parameters: key: O: Obesity - obesity pathway interaction; B: validated binding partner
Conditions: cited from earlier work
[1] = interaction of the small molecule with the human ortholog(s) / Drosophila gene(s) listed in the same table line

In the case of CC(C)OC(=O)C(C)(C)Oc1ccc(C(=O)c2ccc(Cl)cc2)cc1 [Procetofen], the “Type: Type of interaction” value is given as “O”.
For CC(=O)[C@@]1(O)CC[C@H]2[C@@H]3CCC4=CC(=O)CC[C@]4(C)[C@H]3CC[C@@]21C [Prodix], the “Type: Type of interaction” value is given as “B”.
In the case of CCC(=O)[C@@]1(C)CC[C@H]2[C@@H]3CCC4=CC(=O)CCC4=C3CC[C@@]21C [Promegestone], the “Type: Type of interaction” value [1] is given as “O”.
For CC(C)c1cccc(C(C)C)c1O [Propofol], the “Type: Type of interaction” value is given as “B”.
In the case of Cc1cc(O)c2c(=O)c3c(O)cc(O)c4c5c(O)cc(O)c6c(=O)c7c(O)cc(CO)c8c1c2c(c34)c(c65)c78 [Pseudohypericin], the “Type: Type of interaction” value is given as “O”.
For CC(=O)N[C@H]1/C(=N/OC(=O)Nc2ccccc2)O[C@H](CO)[C@@H](O)[C@@H]1O [Pugnac], the “Type: Type of interaction” value [1] is listed as “B”.
For O=C(c1ccc(OCCN2CCCCC2)cc1)c1c(-c2ccc(O)cc2)sc2cc(O)ccc12 [Raloxifene], the “Type: Type of interaction” value [1] is given as “B”.
For O[C@]12C=C(c3nccc4c3[nH]c3ccccc34)[C@@H]3CCN(CCCC/C=C\CC1)C[C@@]31C[C@@H]3/C=C\CCCCN3[C@H]12 [manzamine A], the “Type: Type of interaction” value is listed as “O”.
For O=c1c(O)c(-c2ccc(O)c(O)c2)oc2cc(O)cc(O)c12 [meletin], the “Type: Type of interaction” value [1] is given as “B”.
In the case of Nc1ccc(O)c(C(=O)O)c1 [mesalamine], the “Type: Type of interaction” value [1] is listed as “B”.
For Cc1cccc(C)c1N(Cn1cccn1)C(=O)CCl [metazachlor], the “Type: Type of interaction” value [1] is given as “B”.
For Cc1nc2nc(N)[nH]c(=O)c2nc1[C@@H](C)Nc1ccc(C[C@H](O)[C@H](O)[C@H](O)CO[C@H]2O[C@H](COP(=O)(O)O[C@@H](CCC(=O)O)C(=O)O)[C@@H](O)[C@H]2O)cc1 [methanopterin], the “Type: Type of interaction” value [1] is given as “B”.
In the case of COc1ccc2c(c1)[C@@]13CCCC[C@H]1[C@@H](C2)NCC3 [methoxymorphinan], the “Type: Type of interaction” value is listed as “O”.
For Clc1ccc(COC(Cn2ccnc2)c2ccc(Cl)cc2Cl)c(Cl)c1 (centres unmarked) [miconazole], the “Type: Type of interaction” value [1] is given as “O”.
For CCCCN1C[C@H](O)[C@@H](O)[C@H](O)[C@H]1CO [miglustat], the “Type: Type of interaction” value [1] is listed as “O”.
In the case of CN1CCN2c3ncccc3Cc3ccccc3C2C1 (centres unmarked) [mirtazapine], the “Type: Type of interaction” value [1] is listed as “B”.
In the case of CO[C@H](C(=O)[C@@H](O)[C@@H](C)O)[C@@H]1Cc2cc3cc(O[C@H]4C[C@@H](O[C@H]5C[C@@H](O)[C@H](O)[C@@H](C)O5)[C@H](O)[C@@H](C)O4)c(C)c(O)c3c(O)c2C(=O)[C@H]1O[C@H]1C[C@@H](O[C@H]2C[C@@H](O[C@H]3C[C@](C)(O)[C@H](O)[C@@H](C)O3)[C@@H](O)[C@@H](C)O2)[C@H](O)[C@@H](C)O1 [mithramycin A], the “Type: Type of interaction” value is listed as “B”.
For CNCc1nnc2n1-c1ccc(Cl)cc1C(c1ccccc1)=NC2 [mono-N-demethyladinazolam], the “Type: Type of interaction” value is given as “O”.
In the case of C[C@@H]1C[C@H]2O[C@@H]2/C=C\C=C\C(=O)Cc2cc(O)cc(O)c2C(=O)O1 [monocillin I], the “Type: Type of interaction” value is given as “O”.
For CN(C)c1cccc2c(S(=O)(=O)NCCCCCN)cccc12 [monodansylcadaverine], the “Type: Type of interaction” value [1] is listed as “O”.
In the case of CN1CC[C@]23c4c5ccc(O[C@@H]6O[C@H](C(=O)O)[C@@H](O)[C@H](O)[C@H]6O)c4O[C@H]2[C@@H](O)C=C[C@H]3[C@H]1C5 [morphine-3-glucuronide], the “Type: Type of interaction” value is listed as “B”.
In the case of CCOc1cc(N)c(Cl)cc1C(=O)NCC1CN(Cc2ccc(F)cc2)CCO1 (centres unmarked) [mosapride], the “Type: Type of interaction” value [1] is listed as “O”.
In the case of CC1CC(=O)NN=C1c1cc(-n2ccnc2)cs1 (centres unmarked) [motapizone], the “Type: Type of interaction” value is listed as “O”.
For Oc1ccc2c3c1O[C@H]1c4[nH]c5ccccc5c4C[C@@]4(O)[C@@H](C2)N(CC2CC2)CC[C@]314 [naltrindole], the “Type: Type of interaction” value is listed as “B”.
In the case of CO[C@H]1CC[C@@H](O[C@H]2C[C@H]([C@]3(C)CC[C@]4(C[C@H](O)[C@@H](C)[C@@H]([C@@H](C)/C=C(\C)C(=O)[C@H](C)C[C@H](C)C(=O)O)O4)O3)O[C@]3(O[C@@H]([C@H]4O[C@@](O)(CO)[C@H](C)C[C@@H]4C)C[C@@H]3C)[C@@H]2C)O[C@@H]1C [nanchangmycin], the “Type: Type of interaction” value is listed as “O”.
In the case of CC(C)[C@H]1CC[C@H](C(=O)N[C@H](Cc2ccccc2)C(=O)O)CC1 [nateglinide], the “Type: Type of interaction” value [1] is given as “O”.
For [NH2][Pt]1([NH2])[O]CC(=O)[O]1 [nedaplatin], the “Type: Type of interaction” value is listed as “O”.
In the case of CNc1cc(OC)c(C(=O)NC2CCN(Cc3ccccc3)C2C)cc1Cl (centres unmarked) [nemonapride], the “Type: Type of interaction” value [1] is listed as “O”.
In the case of O=C1NC(=O)C(Cc2ccc3cc(OCc4ccccc4F)ccc3c2)S1 (centres unmarked) [netoglitazone], the “Type: Type of interaction” value [1] is listed as “B”.
For CC(CNC(=O)c1cccnc1)NC(=O)c1cccnc1 (centres unmarked) [nicaraven], the “Type: Type of interaction” value [1] is given as “O”.
In the case of O=C1OC(=O)[C@H]2[C@@H]1[C@@H]1CC[C@H]2O1 [norcantharidin], the “Type: Type of interaction” value is listed as “B”.
For O=C1NC(=O)C2C3C=CC(C3)C12 (centres unmarked) [noreximide], the “Type: Type of interaction” value is listed as “O”.
In the case of NCCC(Oc1ccc(C(F)(F)F)cc1)c1ccccc1 (centres unmarked) [norfluoxetine], the “Type: Type of interaction” value [1] is listed as “B”.
For Oc1ccc(CC2NCCc3cc(O)c(O)cc32)cc1O (centres unmarked) [norlaudanosoline], the “Type: Type of interaction” value is listed as “B”.
In the case of COc1ccc(CCNCCCC(C#N)(c2ccc(OC)c(OC)c2)C(C)C)cc1OC (centres unmarked) [norverapamil], the “Type: Type of interaction” value [1] is given as “O”.
For CO[C@@H]1[C@@H](OC(N)=O)[C@@H](O)[C@H](Oc2ccc3c(O)c(NC(=O)c4ccc(O)c(CC=C(C)C)c4)c(=O)oc3c2C)OC1(C)C [novobiocin], the “Type: Type of interaction” value [1] is listed as “O”.
For C[C@@H]1Cc2c(Cl)cc(C(=O)N[C@@H](Cc3ccccc3)C(=O)O)c(O)c2C(=O)O1 [ochratoxin A], the “Type: Type of interaction” value is listed as “O”.
For O=C(O[C@H]1[C@@H]2OC(=O)c3cc(O)c(O)c(O)c3-c3c4cc(c(O)c3O)Oc3c(cc(O)c(O)c3O)C(=O)O[C@H]3C(O)O[C@@H]5COC(=O)c6cc(O)c(O)c(O)c6-c6c(cc(c(O)c6O)Oc6c(cc(O)c(O)c6O)C(=O)O[C@H]1C(O)O[C@@H]2COC4=O)C(=O)O[C@H]5[C@@H]3OC(=O)c1cc(O)c(O)c(O)c1)c1cc(O)c(O)c(O)c1 (some centres unmarked) [oenothein B], the “Type: Type of interaction” value is given as “B”.
In the case of CO[C@H]1C[C@H](O[C@H]2CC[C@@]3(C)[C@H](CC[C@@H]4[C@@H]3CC[C@]3(C)[C@@H](C5=CC(=O)OC5)[C@@H](OC(C)=O)C[C@]43O)C2)O[C@@H](C)[C@@H]1O [oleandrin], the “Type: Type of interaction” value is listed as “B”.
For CCCCCCCC/C=C\CCCCCCCC(N)=O [oleylamide], the “Type: Type of interaction” value is given as “B”.
In the case of COc1ccc(-c2coc3cc(O)cc(O)c3c2=O)cc1 [olmelin], the “Type: Type of interaction” value is listed as “B”.
In the case of O=C(N[C@H]1CCS[C@H]2CCC[C@@H](C(=O)O)N2C1=O)[C@@H](S)Cc1ccccc1 [omapatrilat], the “Type: Type of interaction” value [1] is given as “O”.
For CNC(=N)NCCC[C@H](N)C(=O)O [omega-N-Methylarginine], the “Type: Type of interaction” value is listed as “O”.
In the case of COc1ccc2nc(S(=O)(=O)Cc3ncc(C)c(OC)c3C)[nH]c2c1 [omeprazole sulfone], the “Type: Type of interaction” value [1] is given as “B”.
For CO[C@@H]1C(=O)CC[C@]2(CO2)[C@@]1(O)[C@@]1(C)O[C@@H]1CC=C(C)C [ovalicin], the “Type: Type of interaction” value [1] is listed as “B”.
In the case of O=C(O)C(=O)O.[NH-][C@@H]1CCCC[C@H]1[NH-].[Pt+2] [oxaliplatin], the “Type: Type of interaction” value is given as “O”.
For O=c1[nH]c2ccccc2n1CCCN1CCN(C(c2ccccc2)c2ccccc2)CC1 [oxatomide], the “Type: Type of interaction” value [1] is given as “B”.
For NC(=O)N1c2ccccc2CC(=O)c2ccccc21 [oxcarbazepine], the “Type: Type of interaction” value [1] is given as “O”.
For O=C1CCC[C@@H]2[C@H]3CCC[N+]4([O-])CCC[C@@H](CN12)[C@@H]34 (some centres unmarked) [oxymatrine], the “Type: Type of interaction” value [1] is listed as “B”.
For Nc1ccc(C(=O)NCC(=O)O)cc1 [p-Aminohippuric Acid], the “Type: Type of interaction” value [1] is given as “B”.
In the case of NCCC(O)(P(=O)(O)O)P(=O)(O)O [pamidronate], the “Type: Type of interaction” value [1] is given as “B”.
In the case of CC1(C)CCC[C@](C)([C@H]2CC[C@]3(C)[C@@H]2[C@H](O)C[C@@H]2[C@@]4(C)CC[C@H](O)C(C)(C)[C@@H]4CC[C@]23C)O1 [panaxadiol], the “Type: Type of interaction” value [1] is listed as “B”.
For c1ccc2c(c1)ccc1ccccc12 [phenanthrene], the “Type: Type of interaction” value [1] is listed as “O”.
In the case of COc1cc([C@@H]2c3cc4c(cc3[C@H](O)[C@H]3COC(=O)[C@@H]23)OCO4)cc(OC)c1OC [picropodophyllin], the “Type: Type of interaction” value [1] is listed as “B”.
For O=C1CC[C@@H](C(=O)N2CSC[C@H]2C(=O)O)N1 [pidotimod] ([pGlu]-[Thz]-OH), the “Type: Type of interaction” value [1] is given as “O”.
In the case of CC1=CC(=O)c2c(O)cccc2C1=O [plumbagin], the “Type: Type of interaction” value [1] is listed as “B”.
In the case of CC[C@@H]([C@H](C)O)n1ncn(-c2ccc(N3CCN(c4ccc(OC[C@@H]5CO[C@@](Cn6cncn6)(c6ccc(F)cc6F)C5)cc4)CC3)cc2)c1=O [posaconazole], the “Type: Type of interaction” value [1] is given as “B”.
In the case of CCCCC[C@H](O)/C=C/[C@H]1C=CC(=O)[C@@H]1CCCCCCC(=O)O [prostaglandin A1], the “Type: Type of interaction” value is given as “O”.
In the case of CCCCC[C@H](O)/C=C/[C@H]1C(=O)C[C@H](O)[C@@H]1C/C=C\CCCC(=O)O [prostaglandin D2], the “Type: Type of interaction” value is listed as “B”.
In the case of CCCCC[C@H](O)/C=C/[C@H]1[C@H](O)CC(=O)[C@@H]1CCCCCCC(=O)O [prostaglandin E1], the “Type: Type of interaction” value is listed as “O”.
In the case of CCCCC[C@H](O)/C=C/[C@@H]1[C@@H](C/C=C\CCCC(=O)O)[C@@H](O)C[C@H]1O [prostaglandin F2alpha], the “Type: Type of interaction” value is listed as “O”.
For CCCCC[C@H](O)/C=C/[C@@H]1[C@@H](C/C=C\CCCC(=O)O)[C@@H]2C[C@H]1OO2 [prostaglandin H2], the “Type: Type of interaction” value is given as “O”.
